Test results published in article PMC6642140, “Boosting NAD^+ with a small molecule that activates NAMPT” (Nature Communications, 2019).

Experiments:
Assay type in all cases: biochemical
[1] = target: T1, NAMPT (nicotinamide phosphoribosyltransferase) (Homo sapiens, UniProt P43490); assay: NMN production LC-MS/MS assay with […] NAD+ (feedback inhibition)
T1 construct: recombinant, N-terminal His tag removed with thrombin

[2] = target: T1, NAMPT (nicotinamide phosphoribosyltransferase); assay: LC-MS/MS of the reversible reaction; suppresses pHisNAMPT in western blot and blunts P3 production
[3] = target: T1, NAMPT (nicotinamide phosphoribosyltransferase); assay: dose-dependent protein thermal shift and stimulation of NMN production
[4] = target: T1, NAMPT (nicotinamide phosphoribosyltransferase); assay: NMN production fluorescence assay at […] compound (slight inhibition)
[5] = target: T1, NAMPT (nicotinamide phosphoribosyltransferase); assay: spin desalting column with LC-MS detection of bound compound; EC50 from NMN production activation assay
From the text: spin desalting column with LC-MS detection of bound compound; EC50 from NMN production activation assay on NAMPT (nicotinamide phosphoribosyltransferase) | When NAMPT and SBI-797812 were mixed and applied to the column, SBI-797812 was detected in the column eluent

T1 sequence (P43490 whole entry): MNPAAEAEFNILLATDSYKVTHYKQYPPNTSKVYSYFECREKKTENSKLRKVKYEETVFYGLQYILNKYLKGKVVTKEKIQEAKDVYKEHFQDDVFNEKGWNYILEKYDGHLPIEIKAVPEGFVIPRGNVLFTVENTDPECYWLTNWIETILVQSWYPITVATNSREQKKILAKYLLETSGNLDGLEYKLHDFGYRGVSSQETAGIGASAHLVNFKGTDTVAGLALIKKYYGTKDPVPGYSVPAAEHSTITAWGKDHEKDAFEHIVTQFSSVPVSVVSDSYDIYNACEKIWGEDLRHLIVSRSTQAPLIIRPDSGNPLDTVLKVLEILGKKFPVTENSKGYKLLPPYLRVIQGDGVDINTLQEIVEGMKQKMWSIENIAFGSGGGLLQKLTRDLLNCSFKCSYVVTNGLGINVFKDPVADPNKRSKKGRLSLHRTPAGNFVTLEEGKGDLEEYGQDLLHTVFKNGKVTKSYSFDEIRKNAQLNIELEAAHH

## NC(=O)c1ccc[n+]([C@@H]2O[C@H](COP(=O)([O-])OP(=O)(O)OC[C@H]3O[C@@H](n4cnc5c(N)ncnc54)[C@H](O)[C@@H]3O)[C@@H](O)[C@H]2O)c1 [NAD^+]
[1]
  NMN production LC-MS/MS assay with 250 μM NAD+ (feedback inhibition): SBI-797812 relieved NAMPT inhibition mediated by NAD^+ (Fig. 2e).

## NC(=O)c1ccc[n+]([C@@H]2O[C@H](COP(=O)([O-])O)[C@@H](O)[C@H]2O)c1 [NMN]
[2]
  LC-MS/MS of the reversible reaction; suppresses pHisNAMPT in western blot and bl: While the pHisNAMPT band was suppressed by NMN or PP, NAM or PRPP had no effect

## CCOC(=O)c1ccc(NC(=O)NCc2ccncc2)cc1 [SBI-136892]
[3]
  dose-dependent protein thermal shift and stimulation of NMN production: SBI-136892 (Fig. 1b), dose-dependently increased the NAMPT Tm (Supplementary Fig. 1a) and stimulated NAMPT-mediated NMN production

## O=C(NCc1ccccn1)Nc1ccc(S(=O)(=O)N2CC3CCC(C2)O3)cc1 [SBI-796950]
[4]
  NMN production fluorescence assay at 2 μM compound (slight inhibition): The SBI-797812 isomer with the 2-pyridyl group, SBI-796950 (Fig. 1b), slightly inhibited NMN production (Fig. 1c).

## O=C(NCc1ccncc1)Nc1ccc(S(=O)(=O)N2CC3CCC(C2)O3)cc1 [SBI-797812]
[5]
  EC50: 370 ± 60 nM
